Here are results for two molecules from patent US7572579B2, “Screening method for a ribonuclease H inhibitor of a reverse transcriptase” (priority 2004, dated 2009).

Test [1] addresses T1, RNase H activity of wild type reverse transcriptase of HIV (Human immunodeficiency virus type 1 group M subtype B, UniProt P04585). The note with it: wild type RT, with preincubation.
Test [2] has as its target polymerase activity of Y188L mutant enzyme of HIV (Human immunodeficiency virus type 1 group M subtype B, UniProt P04585, Y775L). The test can be described thus: biochemical.
Test [3] has as its target T2, RNase H activity of Y188L mutant enzyme of HIV (Human immunodeficiency virus type 1 group M subtype B, UniProt P04585, Y775L). The note with it: with preincubation.
Test [4] has as its target polymerase activity of wild type reverse transcriptase of HIV (Human immunodeficiency virus type 1 group M subtype B, UniProt P04585). The test can be described thus: biochemical. The note with it: Polymerase IC50, wild type RT.
In test [5] the target is T2, RNase H activity of Y188L mutant enzyme of HIV. As to the kind of experiment: biochemical.
The target in test [6] is T1, RNase H activity of wild type reverse transcriptase of HIV. The test can be described thus: biochemical.
The next test concerns virus proliferation. As to conditions: reported in literature; cited from earlier work.
The mark [7] stands for this setting: with preincubation, with metal cofactors.
The mark [8] stands for this setting: with preincubation, without metal cofactors.

pIC50: −log10 of the molar value. Like-named read-outs stand apart in the source and are kept apart here.

What is called pIC50 is −log10 of the IC50, conventionally taken in molar units. A high value points to a low IC50. As for `Cc1ccc(C(=O)Nc2ccc(S(=O)(=O)O)c3cc(S(=O)(=O)O)cc(S(=O)(=O)O)c23)cc1NC(=O)c1cccc(NC(=O)Nc2cccc(C(=O)Nc3cc(C(=O)Nc4ccc(S(=O)(=O)O)c5cc(S(=O)(=O)O)cc(S(=O)(=O)O)c45)ccc3C)c2)c1` [suramin, Suramin sodium], the “RNaseH IC50” value in test [1] (with metal cofactors), in test [1] (without metal cofactors), in test [3] (with metal cofactors) and in test [3] (without metal cofactors) was “≈POL” each time. The pIC50 in test [2] (setting [7]) was 5.61; in test [2] (setting [8]), 5.00; in test [2] (without preincubation), less than 4.11; in test [4] (setting [7]), 5.61; in test [4] (setting [8]) it was 4.79; in test [4] (without preincubation), less than 4.11. Also, the pIC50 in test [5] and in test [6] was less than 4.11 throughout.

Take `O=C(O)C(=O)CC(=O)c1ccc(NC(=O)c2ccccc2)s1` [Compound 1, 4-[5-(benzoylamino)thien-2-yl]-2,4-dioxobutanoic acid]: the “inhibition of virus proliferation in cell-based assay” value in the test on virus proliferation is “can not inhibit virus proliferation”.
